The values below come from patent US20260209214A1, “LSD1 MODULATORS” (RECURSION PHARMACEUTICALS, INC., priority 2022, published 2026).

Bounds are passed on as bounds.

In the first test the target is Recombinant human LSD1 (Homo sapiens, UniProt O60341). As to the kind of experiment: LSD1 inhibition assay (HTRF LSD1 Histone H3K4 mono-demethylation assay, me1->me0). It is filed as biochemical. The conditions noted are these: 20 nM recombinant human LSD1, 95 nM H3K4(me1) biotinylated peptide, 15 min preincubation, 60 min at 25° C., read-out: LSD1 inhibition IC50 (nM range). The method, boiled down:
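Recombinant human LSD1 (20 nM) pre-incubated 15 min with 10 semi-log compound doses, then 95 nM biotinylated H3K4me1 peptide for 60 min at 25 °C in pH 8.5 Tris/NaCl buffer with 10 μM FAD, 1 mM DTT. HTRF me0-antibody read after 90 min; IC50 from 4-parameter fit.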
In general terms: Time-resolved FRET reads energy transfer from a long-lived donor to a nearby acceptor.
For orientation: IC50 means the concentration that gives 50% inhibition. For `CN[C@H]1CCCN(Cc2cccc(-c3ccc(C#N)c(F)c3)c2C2CC2)CC1` [Example 215, 2'-cyclopropyl-3-fluoro-3'-{[(4S)-4-(methylamino)azepan-1-yl]methyl}-[1,1'-biphenyl]-4-carbonitrile], the IC50 lay in the range of 25 to 100 nM.
With `Cn1cc2cc(-c3ccc(CC4CNCCO4)cc3-c3ccc(C#N)c(F)c3)ccc2n1` (stereo not shown) [Compound 58], the IC50 was 100 to 1000 nM.
The same measure, in the same setting: the figure for `CC1(C)CN(c2ccc(CN3[C@@H]4CC[C@H]3[C@@H](N)C4)cc2-c2ccc(C#N)c(F)c2)C1` (racemic) [Example 206, 5'-{[(1S,2S,4R)-2-amino-7-azabicyclo[2.2.1]heptan-7-yl]methyl}-2'-(3,3-dimethylazetidin-1-yl)-3-fluoro-[1,1'-biphenyl]-4-carbonitrile] is 10 to 25 nM; for `CCC1(O)CCN(c2ccc(CC3CNCCO3)cc2-c2ccc(C#N)c(F)c2)CC1` (stereo not shown) [Example 33, 2′-(4-ethyl-4-hydroxypiperidin-1-yl)-3-fluoro-5′-[(morpholin-2-yl)methyl]-[1,1′-biphenyl]-4-carbonitrile] it is 25 to 100 nM.
Same read-out and setting: as for `N#Cc1ccc(-c2cc(CC3CNCCO3)ccc2N2CCC2)cc1F` (stereo not shown) [Example 44, 2′-(azetidin-1-yl)-3-fluoro-5′-[(morpholin-2-yl)methyl]-[1,1′-biphenyl]-4-carbonitrile], the figure is 100 to 1000 nM.
Same read-out and setting: as for `N#Cc1ccc(-c2cccc(CN3C[C@@]4(N)CC[C@@H]3C4)c2C2CC2)cc1F` [Example 225, 3'-{[(1R,4R)-4-amino-2-azabicyclo[2.2.1]heptan-2-yl]methyl}-2'-cyclopropyl-3-fluoro-[1,1'-biphenyl]-4-carbonitrile], the figure is 100 to 1000 nM; as for `N#Cc1ccc(-c2cc(CC3CNCCO3)ccc2-c2ccc(OCC3CC3)nc2)cc1F` (stereo not shown) [Example 96, 2′-[6-(cyclopropylmethoxy)pyridin-3-yl]-3-fluoro-5′-[(morpholin-2-yl)methyl]-[1,1′-biphenyl]-4-carbonitrile], 100 to 1000 nM; as for `N#Cc1ccc(-c2cccc(C[C@@H]3CNCCO3)c2-c2ccns2)cc1F` [Example 28, 3-fluoro-3′-{[(2R)-morpholin-2-yl]methyl}-2′-(1,2-thiazol-5-yl)-[1,1′-biphenyl]-4-carbonitrile], less than 10 nM.
On to `N#Cc1ccc(-c2cccc(CN3CC4CC4(N)C3)c2Cl)cc1F` (stereo not shown) [Example 287, 3'-({1-amino-3-azabicyclo[3.1.0]hexan-3-yl}methyl)-2'-chloro-3-fluoro-[1,1'-biphenyl]-4-carbonitrile], for which the IC50 is more than 1000 nM.
Same read-out and setting: as for `Cc1cc(-c2cccc(CC3CNCCO3)c2-c2ccns2)ccc1C#N` (stereo not shown) [Example 43, 3-methyl-3′-[(morpholin-2-yl)methyl]-2′-(1,2-thiazol-5-yl)-[1,1′-biphenyl]-4-carbonitrile], the figure is 25 to 100 nM.
Same read-out and setting: the figure for `CN1CCC12CCN(Cc1c(F)ccc(-c3ccc(C#N)c(F)c3)c1N1CCC1)C2` (stereo not shown) [Example 239, 2'-(azetidin-1-yl)-3,4'-difluoro-3'-({1-methyl-1,6-diazaspiro[3.4]octan-6-yl}methyl)-[1,1'-biphenyl]-4-carbonitrile] is 25 to 100 nM; for `CC(c1ccc(N2CCC2)c(-c2ccc(C#N)c(F)c2)c1)C1CNCCO1` (stereo not shown) [Example 144, 2′-(azetidin-1-yl)-3-fluoro-5′-[1-(morpholin-2-yl)ethyl]-[1,1′-biphenyl]-4-carbonitrile] it is more than 1000 nM; for `N#Cc1ccc(-c2cccc(CN3C[C@@H]4CNC[C@H]4C3)c2-c2cncs2)cc1F` [Example 324, 3'-{[(3aS,6aS)-octahydropyrrolo[3,4-c]pyrrol-2-yl]methyl}-3-fluoro-2'-(1,3-thiazol-5-yl)-[1,1'-biphenyl]-4-carbonitrile] it is 10 to 25 nM.
Still for that read-out and setting: as for `N#Cc1ccc(-c2cccc(CN3CC[C@@H]4NCCC[C@@H]43)c2C2CC2)cc1F` [Example 271, Fc1cc(ccc1C#N)c2cccc(CN3CC[C@@H]4NCCC[C@H]34)c2C5CC5], the figure is 100 to 1000 nM; as for `N#Cc1ccc(-c2cccc(CN3[C@@H]4CC[C@H]3[C@@H](N)C4)c2-c2ccns2)cc1` (single isomer, unassigned) [Example 204], 10 to 25 nM.
Take `CC1(C)CN(Cc2cccc(-c3ccc(C#N)c(F)c3)c2-c2ccns2)C[C@H]1N` (single isomer, unassigned) [Example 194]: the IC50 is less than 10 nM.
Same read-out and setting: as for `N#Cc1ccc(-c2cc(CC3CNCCO3)ccc2N2CCC(O)(C3CC3)CC2)cc1F` (stereo not shown) [Example 60, 2′-(4-cyclopropyl-4-hydroxypiperidin-1-yl)-3-fluoro-5′-[(morpholin-2-yl)methyl]-[1,1′-biphenyl]-4-carbonitrile], the figure is 25 to 100 nM.
Still for that read-out and setting: as for `N#Cc1ccc(-c2cccc(CC3CNCCO3)c2-c2cnco2)cc1` (stereo not shown) [Example 27, 3′-[(morpholin-2-yl)methyl]-2′-(1,3-oxazol-5-yl)-[1,1′-biphenyl]-4-carbonitrile], the figure is 25 to 100 nM.
Still for that read-out and setting: as for `COC1CN(c2ccc(CC3CNCCO3)cc2-c2ccc(C#N)c(F)c2)C1` (stereo not shown) [Example 140, 3-fluoro-2′-(3-methoxyazetidin-1-yl)-5′-[(morpholin-2-yl)methyl]-[1,1′-biphenyl]-4-carbonitrile], the figure is more than 1000 nM.
For `N#Cc1ccc(-c2ccc(F)c(CN3C[C@]4(N)CC[C@H]3C4)c2C2CC2)cc1F` [Example 189, 3'-{[(1S,4S)-4-amino-2-azabicyclo[2.2.1]heptan-2-yl]methyl}-2'-cyclopropyl-3,4'-difluoro-[1,1'-biphenyl]-4-carbonitrile], the IC50 lay in the range of 10 to 25 nM.
On to `Cn1cc2cc(-c3ccc(CN4C[C@]5(N)CC[C@H]4C5)cc3-c3ccc(C#N)c(F)c3)ccc2n1` [Example 264, 5'-{[(1S,4S)-4-amino-2-azabicyclo[2.2.1]heptan-2-yl]methyl}-3-fluoro-2'-(2-methyl-2H-indazol-5-yl)-[1,1'-biphenyl]-4-carbonitrile], for which the IC50 was 10 to 25 nM.
Take `N#Cc1ccc(-c2cccc(CN3[C@@H]4CC[C@H]3[C@@H](N)C4)c2C2CC2)cc1` (racemic) [Example 191, 3'-{[(1S,2S,4R)-2-amino-7-azabicyclo[2.2.1]heptan-7-yl]methyl}-2'-cyclopropyl-[1,1'-biphenyl]-4-carbonitrile]: the IC50 lay within 25 to 100 nM.
The same measure, in the same setting: as for `N#Cc1ccc(-c2cc(CN3[C@@H]4CC[C@H]3[C@@H](N)C4)ccc2OC[C@@H]2CCCOC2)cc1F` (racemic) [Example 231, 5'-{[(1S,2S,4R)-2-amino-7-azabicyclo[2.2.1]heptan-7-yl]methyl}-3-fluoro-2'-{[(3R)-oxan-3-yl]methoxy}-[1,1'-biphenyl]-4-carbonitrile], the figure is 10 to 25 nM.
On the same count and under the same terms, the figure for `N#Cc1ccc(-c2cc(CC3CNCCO3)ccc2N2CCC(C3CCCO3)CC2)cc1F` (stereo not shown) [Example 73, 3-fluoro-5′-[(morpholin-2-yl)methyl]-2′-[4-(oxolan-2-yl)piperidin-1-yl]-[1,1′-biphenyl]-4-carbonitrile] is 25 to 100 nM; for `N#Cc1ccc(-c2cc(CC3CNCCCO3)ccc2N2CCC2)cc1F` (stereo not shown) [Example 102, 2′-(azetidin-1-yl)-3-fluoro-5′-[(1,4-oxazepan-2-yl)methyl]-[1,1′-biphenyl]-4-carbonitrile] it is 25 to 100 nM; for `N#Cc1ccc(-c2cccc(CC3CNCCCO3)c2-c2ccns2)cc1F` (stereo not shown) [Example 20, 3-fluoro-3′-[(1,4-oxazepan-2-yl)methyl]-2′-(1,2-thiazol-5-yl)-[1,1′-biphenyl]-4-carbonitrile] it is less than 10 nM.
With `N#Cc1ccc(-c2cccc(C[C@H]3CNCCO3)c2-c2cncs2)cc1F` (single isomer, unassigned) [Example 30], the IC50 was in the range of 10 to 25 nM.
Still for that read-out and setting: the figure for `N#Cc1ccc(-c2cccc(CN3CC4CCC3CN4)c2Cl)cc1F` (stereo not shown) [Example 283, 2'-chloro-3'-({2,5-diazabicyclo[2.2.2]octan-2-yl}methyl)-3-fluoro-[1,1'-biphenyl]-4-carbonitrile] is 100 to 1000 nM; for `N#Cc1ccc(-c2cc(CN3[C@@H]4CC[C@H]3[C@@H](N)C4)ccc2-c2ccc(F)cn2)cc1F` (racemic) [Example 258, 5'-{[(1S,2S,4R)-2-amino-7-azabicyclo[2.2.1]heptan-7-yl]methyl}-3-fluoro-2'-(5-fluoropyridin-2-yl)-[1,1'-biphenyl]-4-carbonitrile] it is 25 to 100 nM; for `N#Cc1ccc(-c2cccc(CC3CNCCO3)c2-c2cncs2)cc1F` (stereo not shown) [Example 48, 3-fluoro-3′-[(morpholin-2-yl)methyl]-2′-(1,3-thiazol-5-yl)-[1,1′-biphenyl]-4-carbonitrile] it is 10 to 25 nM.
On the same count and under the same terms, as for `N#Cc1ccc(-c2cccc(CC3CNCCO3)c2C2=CCOC2)cc1F` (stereo not shown) [Example 10, 2′-(2,5-dihydrofuran-3-yl)-3-fluoro-3′-[(morpholin-2-yl)methyl]-[1,1′-biphenyl]-4-carbonitrile], the figure is 10 to 25 nM.
On the same count and under the same terms, as for `N#Cc1ccc(-c2cccc(CN3[C@@H]4CC[C@H]3[C@@H](N)C4)c2-c2ccns2)cc1` (racemic) [Example 170, 3'-{[(1S,2S,4R)-2-amino-7-azabicyclo[2.2.1]heptan-7-yl]methyl}-2'-(1,2-thiazol-5-yl)-[1,1'-biphenyl]-4-carbonitrile], the figure is 10 to 25 nM; as for `N#Cc1ccc(-c2cc(CC3CNCCO3)ccc2-c2ccc(N3CCCC3)nc2)cc1F` (stereo not shown) [Example 93, 3-fluoro-5′-[(morpholin-2-yl)methyl]-2′-[6-(pyrrolidin-1-yl)pyridin-3-yl]-[1,1′-biphenyl]-4-carbonitrile], 25 to 100 nM.

The same test, now with this note: LSD1 inhibition IC50 (nM range), 20 nM recombinant human LSD1, 95 nM H3K4(me1) biotinylated peptide, 15 min preincubation, 60 min at 25° C.
Consider `CN1CC2(C1)CN(Cc1cccc(-c3ccc(C#N)c(F)c3)c1Cl)C2` [Example 214, CN1CC2(C1)CN(Cc3cccc(c3Cl)c4ccc(C#N)c(F)c4)C2], for which the IC50 is more than 1000 nM.
